Laboratory results as given in the NIST ThermoML archive (doi:10.1007/s10765-013-1526-8).

What was measured:
[1] = refractive index (Na D-line) (dimensionless); xn = mol fraction of the nth substance listed; details: 101 kPa, Liquid
[2] = xn = mol fraction of the nth substance listed; details: 101 kPa, Liquid; for speed of sound: Sing-around technique in a fixed-path interferometer

CCCCC(CC)CO (stereo not given) [2-ethyl-1-hexanol] + Clc1ccccc1
Details	mass density, [2] [kg/m3]	refractive index, [1]	speed of sound, [2] [m/s]	viscosity, [2] [mPa·s]
298.15 K, x2 = 0	829.07	1.4287	1319	8.418
298.15 K, x2 = 0.0779	838.66	1.435	1313	6.736
298.15 K, x2 = 0.1381	847.37	1.44	1308	5.641
298.15 K, x2 = 0.1974	857.02	1.4453	1304	4.684
298.15 K, x2 = 0.2716	870.89	1.4523	1298	3.718
298.15 K, x2 = 0.3399	885.34	1.4591	1292	2.996
298.15 K, x2 = 0.4119	902.38	1.4666	1287	2.38
298.15 K, x2 = 0.4766	919.17	1.4734	1282	1.969
298.15 K, x2 = 0.5461	938.46	1.4807	1277	1.628
298.15 K, x2 = 0.6124	958.72	1.4879	1272	1.381
298.15 K, x2 = 0.6892	983.65	1.4961	1268	1.197
298.15 K, x2 = 0.758	1007.82	1.5034	1265	1.06
298.15 K, x2 = 0.8189	1029.88	1.5095	1264	0.969
298.15 K, x2 = 0.8888	1056.63	1.5161	1263	0.893
298.15 K, x2 = 0.9533	1081.91	1.521	1265	0.821
303.15 K, x2 = 0	825.39	1.4266	1301	7.144
303.15 K, x2 = 0.0779	834.41	1.4332	1295	5.817
303.15 K, x2 = 0.1381	842.5	1.4382	1291	4.906
303.15 K, x2 = 0.1974	852.03	1.4437	1286	4.121
303.15 K, x2 = 0.2716	865.78	1.4509	1280	3.268
303.15 K, x2 = 0.3399	880.07	1.4577	1275	2.671
303.15 K, x2 = 0.4119	897.12	1.4651	1269	2.147
303.15 K, x2 = 0.4766	914.02	1.472	1264	1.785
303.15 K, x2 = 0.5461	933.51	1.4793	1259	1.455
303.15 K, x2 = 0.6124	953.51	1.4863	1254	1.253
303.15 K, x2 = 0.6892	978.28	1.4943	1250	1.057
303.15 K, x2 = 0.758	1002.29	1.5015	1247	0.968
303.15 K, x2 = 0.8189	1024.42	1.5076	1246	0.881
303.15 K, x2 = 0.8888	1050.99	1.514	1245	0.81
303.15 K, x2 = 0.9533	1076.27	1.5186	1247	0.764
308.15 K, x2 = 0	821.68	1.4245	1283	6.09
308.15 K, x2 = 0.0779	829.62	1.4308	1277	4.854
308.15 K, x2 = 0.1381	837.63	1.4362	1273	4.032
308.15 K, x2 = 0.1974	846.84	1.4416	1268	3.363
308.15 K, x2 = 0.2716	860.76	1.4491	1263	2.689
308.15 K, x2 = 0.3399	875.1	1.4561	1257	2.171
308.15 K, x2 = 0.4119	892.15	1.4637	1252	1.749
308.15 K, x2 = 0.4766	908.93	1.4706	1247	1.45
308.15 K, x2 = 0.5461	928.26	1.4778	1242	1.221
308.15 K, x2 = 0.6124	948.46	1.4849	1237	1.068
308.15 K, x2 = 0.6892	973.49	1.4929	1233	0.96
308.15 K, x2 = 0.758	996.87	1.4998	1230	0.879
308.15 K, x2 = 0.8189	1018.95	1.5056	1228	0.824
308.15 K, x2 = 0.8888	1045.23	1.5116	1228	0.774
308.15 K, x2 = 0.9533	1070.96	1.5161	1229	0.719
